The values below come from patent US20260234157A1, “COMPOUND AND METHOD FOR TARGETED DEGRADATION OF ANDROGEN RECEPTOR” (Gan & Lee Pharmaceuticals Co., Ltd., priority 2023, published 2026).

Type in all cases: cell-based
Assay [1] concerns the target T1, AR protein (Homo sapiens, UniProt P10275).
T1 construct: degradation activity of the compounds disclosed in the present disclosure on AR protein in VCaP cells; host or cells: VCaP
T1 sequence (P10275 1-920): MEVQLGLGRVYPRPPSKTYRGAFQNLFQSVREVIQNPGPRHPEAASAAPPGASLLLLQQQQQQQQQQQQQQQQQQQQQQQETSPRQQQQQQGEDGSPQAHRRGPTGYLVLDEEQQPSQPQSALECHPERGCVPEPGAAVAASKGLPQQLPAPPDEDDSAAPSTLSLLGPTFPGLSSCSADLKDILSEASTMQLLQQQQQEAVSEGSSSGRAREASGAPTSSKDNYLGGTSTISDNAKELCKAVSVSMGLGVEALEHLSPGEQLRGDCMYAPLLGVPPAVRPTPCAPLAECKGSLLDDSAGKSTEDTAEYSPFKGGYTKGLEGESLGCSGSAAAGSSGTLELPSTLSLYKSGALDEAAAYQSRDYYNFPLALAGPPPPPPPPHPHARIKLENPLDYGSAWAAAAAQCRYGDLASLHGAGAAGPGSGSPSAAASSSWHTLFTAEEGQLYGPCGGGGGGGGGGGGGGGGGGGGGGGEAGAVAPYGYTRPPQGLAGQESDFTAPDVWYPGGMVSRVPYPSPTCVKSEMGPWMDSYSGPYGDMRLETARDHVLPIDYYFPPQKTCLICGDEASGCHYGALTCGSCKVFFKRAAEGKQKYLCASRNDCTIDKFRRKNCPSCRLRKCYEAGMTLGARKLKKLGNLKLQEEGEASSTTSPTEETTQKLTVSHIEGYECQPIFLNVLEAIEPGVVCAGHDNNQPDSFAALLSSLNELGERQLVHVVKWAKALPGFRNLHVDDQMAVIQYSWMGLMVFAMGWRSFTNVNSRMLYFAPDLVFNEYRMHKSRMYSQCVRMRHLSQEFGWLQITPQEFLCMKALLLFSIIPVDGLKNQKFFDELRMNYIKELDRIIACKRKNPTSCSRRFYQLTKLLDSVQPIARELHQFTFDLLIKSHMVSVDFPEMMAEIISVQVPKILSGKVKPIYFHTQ
As to the kind of experiment: Degradation of AR protein in VCaP cells (Western blot). To be noted: 8 hours; for inhibition at 0.01 µM: compound at 10 nM, read-out: Degradation rate of the AR protein in VCaP cells, 10 nM (%); for inhibition at 0.1 µM: compound at 100 nM, read-out: Degradation rate of the AR protein in VCaP cells, 100 nM (%). The method, boiled down:
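VCaP cells treated with compound alongside solvent controls for 8 h, then lysed in RIPA and protein quantified by BCA. AR detected by SDS-PAGE/Western blot with infrared imaging. Degradation rate calculated from band grayscale, with GAPDH as internal reference.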

The target in assay [2] is T2, AR protein (Homo sapiens, UniProt P10275, T878A).
T2 construct: degradation activity of the compounds disclosed in the present disclosure on AR protein in LNCaP cells; host or cells: LNCaP FGC
T2 sequence (P10275 1-920 T878A): T1 sequence (P10275 1-920) with T878A
The assay can be described thus: Degradation of AR protein in LNCaP cells (Western blot). To be noted: LNCaP cells, 8 hours, Western blot grayscale, GAPDH internal reference; for inhibition at 0.01 µM: compound 10 nM, read-out: Degradation rates of the AR protein in LNCaP cells, 10 nM (%); for inhibition at 0.1 µM: compound 100 nM, read-out: Degradation rates of the AR protein in LNCaP cells, 100 nM (%). In short, it runs like this: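 AR assessed by SDS-PAGE/Western blot with infrared imaging; band greyscale normalised to GAPDH gave percent degradation.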

Assay [3] relates to VCaP cells. As to the kind of experiment: Inhibition of proliferation of VCaP cells (WST-8). To be noted: Homo sapiens; VCaP cells, 168 hours, WST-8 absorbance at 450 nm; read-out: IC50 for inhibiting the proliferation of VCaP cells. The method, boiled down: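 VCaP FGC cells, 15000 per well in DMEM with 10% FBS, were cultured at 37° C, 5% CO2. On day nine, WST-8 reagent was added to read proliferation.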

Assay [4] relates to LNCaP FGC cells. The assay can be described thus: Inhibition of proliferation of LNCaP cells (WST-8). To be noted: Homo sapiens, LNCaP, 96 h, LNCaP FGC cells, 96 hours, WST-8 absorbance at 450 nm; read-out: IC50 for inhibiting the proliferation of LNCaP cells. Here is the method:
The cells were cultured in a cell culture incubator with 5% CO2 at 37° C. overnight. […] On the sixth day, 96 well plates were taken out, and 20 μL of WST-8 (Beytime, C0040) reagent was added to each well.

Structures are written as SMILES. Numbering of substitutions follows the chain as printed. A value given as a limit tells only on which side of the number the result lay.

For `C[C@H]1CN(c2ccc(C(=O)N[C@H]3CC[C@H](Oc4ccc(C#N)c(Cl)c4)CC3)nn2)C[C@@H]1CN1CCC2(CC1)COc1c2ccc2c1CN(C1CCC(=O)NC1=O)C2=O` (stereo partly drawn) [Compound 212], the inhibition at 0.01 µM amounted to 60% in assay [1] and 79% in assay [2]. Also, the inhibition at 0.1 µM in assay [1] is 82%; in assay [2], 70%. Further, the IC50 in assay [3] was determined as 1 nM; in assay [4] it was 320 nM.

Regarding `N#Cc1ccc(O[C@H]2CC[C@H](NC(=O)c3ccc(N4CCC(F)(CN5CC6(CCc7ccc8c(c7O6)C(=O)N(C6CCC(=O)NC6=O)C8)C5)CC4)nn3)CC2)cc1Cl` (stereo partly drawn) [Compound 139], the inhibition at 0.01 µM in assay [1] was -16%; in assay [2], 42%. In addition, the inhibition at 0.1 µM was -31% in assay [1] and 11% in assay [2]. The IC50 in assay [3] is more than 90000 nM; in assay [4], 52300 nM.

Regarding `CCOC1(CN2CCC3(CC2)COc2c3ccc3c2C(=O)N(C2CCC(=O)NC2=O)C3=O)CCN(c2ccc(C(=O)N[C@H]3C(C)(C)[C@H](Oc4ccc(C#N)c(OC)c4)C3(C)C)cc2)CC1` (stereo partly drawn) [Compound 295], the inhibition at 0.01 µM is -4% in assay [1] and 1% in assay [2]. Moreover, the figures for the inhibition at 0.1 µM in assay [1] and in assay [2] were 37% and 44%, respectively. Further, the IC50 in assay [3] turned out to be 20 nM; in assay [4] it was 370 nM.

Take `N#Cc1ccc(O[C@H]2CC[C@H](NC(=O)c3ccc(N4CC[C@H](CN5CCC6(CC5)COc5cc7c(cc56)C(=O)N(C5CCC(=O)NC5=O)C7=O)C4)nn3)CC2)cc1Cl` (stereo partly drawn) [Compound 58]: the inhibition at 0.01 µM in assay [1] amounted to 91%; in assay [2], 33%. The inhibition at 0.1 µM was 93% in assay [1] and 58% in assay [2]. Also, the IC50 in assay [3] is 69 nM; in assay [4], 1800 nM.

With `COc1cc(O[C@H]2C(C)(C)[C@H](NC(=O)c3ccc(N4CCC(F)(CN5CC6(CCc7cc8c(cc7O6)C(=O)N(C6CCC(=O)NC6=O)C8=O)C5)CC4)cc3)C2(C)C)ccc1C#N` (stereo partly drawn) [Compound 269], the inhibition at 0.01 µM in assay [1] stood at 7%; in assay [2], 35%. Besides, the inhibition at 0.1 µM in assay [1] was determined as 63%; in assay [2] it was 61%. For the same compound, the IC50 in assay [3] came out at 270 nM; in assay [4], 11800 nM.

With `CCC1(CN2CCC3(CC2)COc2c3ccc3c2C(=O)N(C2CCC(=O)NC2=O)C3=O)CCN(c2ccc(C(=O)N[C@H]3CC[C@H](Oc4ccc(C#N)c(OC)c4)CC3)nn2)CC1` (stereo partly drawn) [Compound 250], the inhibition at 0.01 µM in assay [1] was 15%; in assay [2], -14%. Besides, the inhibition at 0.1 µM in assay [1] came to 61%; in assay [2] it was 67%. The IC50 in assay [3] was 160 nM; in assay [4] it was more than 90000 nM.

For the compound `COc1cc(O[C@H]2CC[C@H](NC(=O)c3ccc(N4CC(CN5CCC6(CC5)COc5c6ccc6c5C(=O)N(C5CCC(=O)NC5=O)C6=O)C4)nn3)CC2)ccc1C#N` (stereo partly drawn) [Compound 251], the inhibition at 0.01 µM in assay [1] turned out to be 48%; in assay [2], 45%. Further, the results for the inhibition at 0.1 µM in assay [1] and in assay [2] were 73% and 37%, respectively. For the same compound, the IC50 worked out at 270 nM in assay [3] and 150 nM in assay [4].
